Reference: US20200277268A1, “PENTAFLUOROPHENYL SULFONAMIDE COMPOUNDS, COMPOSITIONS AND USES THEREOF” (DALRIADA THERAPEUTICS INC., priority 2017, published 2020)

How the values were obtained:
Assay type in all cases: cell-based
MOLM13 = test: CellTiter-Blue cell viability, MOLM13; conditions: Homo sapiens, MOLM-13; AML cell line, 72 hours
Method: (§1) The anti-cancer efficacy of exemplary compounds of the application were assessed in vitro against different cancer cell lines. Cell viability was examined following treatment at various concentrations of inhibitor (0.097656-50 μM) using a CellTiter-Blue® cell viability assay. 1×10^4 cells/well were plated in 96-well assay plates in culture medium. All cells were grown in DMEM, IMDM and RPMI-1640 supplemented with 10% fetal bovine serum (FBS). In some instances, FBS was removed for periods ranging from 16-24 hours, and re-introduced with test compound addition. After 24 hrs, test compounds and vehicle controls were added to appropriate wells such that the final volume was 100 μl in each well. The cells were cultured for the desired test exposure period (72 hours) at 37° C. and 5% CO2. The assay plates were removed from 3° C. incubator and 20 μl/well of CellTiter-Blue® Reagent was added. The plates were incubated using standard cell culture conditions for 1-4 hours. Afterwards, the plates were shaken for 10 seconds and florescence was recorded at 560/590 nm using a Cytation 3 spectrophotometer. IC50 values were determined using non-linear regression analysis with GraphPad Prism 6.0 (GraphPad Software Inc.).

MV4-11 = test: CellTiter-Blue cell viability, MV4-11; conditions: for activity in AML cells: AML cells (MV4-11 and MOLM13); for IC50: Homo sapiens, MV4-11, AML cell line, 72 hours; for potency relative to parent I-1 analogue: cell viability, Table 1
Method: as §1

[1] = test system: healthy human lung cells (MRC9); test: CellTiter-Blue cell viability, MRC9; conditions: non-cancerous, 72 hours
Method: as §1

[2] = test system: primary human fibroblast cells (PHF); test: CellTiter-Blue cell viability, PHF; conditions: non-cancerous, 72 hours
Method: as §1

| SMILES | IC50 (MOLM13) [µM] | activity in AML cells (MV4-11) | IC50 (MV4-11) [µM] | potency relative to parent I-1 analogue (MV4-11) | IC50 [1] [µM] | IC50 [2] [µM] |
| --- | --- | --- | --- | --- | --- | --- |
| O=S(=O)(c1ccccc1)N(Cc1ccc(F)cc1)C1CC1 [Comparative Example 2, N-cyclopropyl-N-(4-fluorobenzyl)benzenesulfonamide, reference compound] | ≥ 25 | inactive | ≥ 25 | – | – | – |
| O=S(=O)(NCc1ccc(F)cc1)c1c(F)c(F)c(F)c(F)c1F [Comparative Example 4, 2,3,4,5,6-pentafluoro-N-(4-fluorobenzyl)benzenesulfonamide, reference compound] | 4 | – | 3.1 | less potent | 16.8 | – |
| O=S(=O)(Nc1ccc(F)cc1)c1c(F)c(F)c(F)c(F)c1F [Comparative Example 5, 2,3,4,5,6-pentafluoro-N-(4-fluorophenyl)benzenesulfonamide, reference compound] | 17.6 | – | 4.4 | less potent | – | – |
| O=S(=O)(NC1CC1)c1c(F)c(F)c(F)c(F)c1F [Comparative Example 6, N-cyclopropyl-2,3,4,5,6-pentafluorobenzenesulfonamide, reference compound] | 7 | – | 6.4 | – | 19.1 | – |
| O=S(=O)(NC1(c2ccccc2)CC1)c1c(F)c(F)c(F)c(F)c1F [Comparative Example 7, 2,3,4,5,6-pentafluoro-N-(1-phenylcyclopropyl)benzenesulfonamide, reference compound] | – | – | 31 | – | – | – |
| O=S(=O)(c1c(F)c(F)cc(F)c1F)N(Cc1ccc(F)cc1)C1CC1 [Comparative Example 8, N-cyclopropyl-2,3,5,6-tetrafluoro-N-(4-fluorobenzyl)benzenesulfonamide, reference compound] | > 25 | inactive | > 12.5 | – | – | – |
| O=S(=O)(c1c(F)c(F)c(F)c(F)c1F)N(Cc1ccccc1)Cc1ccc(F)cc1 [Compound I-3] | 9.3 | – | 0.59 | – | 14.4 | – |
| CC(=O)N(Cc1ccc(F)cc1)S(=O)(=O)c1c(F)c(F)c(F)c(F)c1F [Compound I-4, N-(4-fluorobenzyl)-N-((perfluorophenyl)sulfonyl)acetamide] | 5.1 | – | 2.09 | – | 25 | – |
| O=S(=O)(c1c(F)c(F)c(F)c(F)c1F)N(Cc1ccc(F)cc1)C1CCCC1 [Compound I-5, N-cyclopentyl-2,3,4,5,6-pentafluoro-N-(4-fluorobenzyl)benzenesulfonamide] | 2 | – | 0.7 | – | – | – |
| O=S(=O)(c1c(F)c(F)c(F)c(F)c1F)N(Cc1ccccc1)C1CC1 [Compound I-6, N-benzyl-N-cyclopropyl-2,3,4,5,6-pentafluorobenzenesulfonamide] | 1.3 | – | 1.3 | – | 17.5 | – |
| O=S(=O)(c1c(F)c(F)c(F)c(F)c1F)N(Cc1ccncc1)C1CC1 [Compound I-9, N-cyclopropyl-2,3,4,5,6-pentafluoro-N-(pyridin-4-ylmethyl)benzenesulfonamide] | 1.62 | – | 1.83 | – | – | – |
| O=S(=O)(c1c(F)c(F)c(F)c(F)c1F)N(C1CC1)C(c1ccc(F)cc1)C(F)(F)F (stereo not shown) [Compound I-10, N-cyclopropyl-2,3,4,5,6-pentafluoro-N-(2,2,2-trifluoro-1-(4-fluorophenyl)ethyl)benzenesulfonamide] | 9.83 | – | 0.974 | – | – | – |
| O=S(=O)(c1c(F)c(F)c(F)c(F)c1F)N(Cc1cccc(F)c1)C1CC1 [Compound I-11, N-cyclopropyl-2,3,4,5,6-pentafluoro-N-(3-fluorobenzyl)benzenesulfonamide] | 3.37 | – | 1.7 | – | 9 | – |
| COc1ccc(CN(C2CC2)S(=O)(=O)c2c(F)c(F)c(F)c(F)c2F)cc1F [Compound I-17, N-cyclopropyl-2,3,4,5,6-pentafluoro-N-(3-fluoro-4-methoxybenzyl)benzenesulfonamide] | 0.63 | – | 0.79 | – | 16.2 | – |
| CCOC(=O)C1(N(Cc2ccc(F)cn2)S(=O)(=O)c2c(F)c(F)c(F)c(F)c2F)CC1 [Compound I-18, Ethyl 1-((2,3,4,5,6-pentafluoro-N-((5-fluoropyridin-2-yl)methyl)phenyl)sulfonamido)cyclopropane-1-carboxylate] | 6.2 | – | 2.8 | – | – | – |
| NC(=O)c1ccc(CN(C2CC2)S(=O)(=O)c2c(F)c(F)c(F)c(F)c2F)cc1 [Compound I-20, 4-(((N-cyclopropyl-2,3,4,5,6-pentafluorophenyl)sulfonamido)methyl)benzamide] | 1.7 | – | 1.05 | – | – | 4.9 |
| COc1cc(CN(C2CC2)S(=O)(=O)c2c(F)c(F)c(F)c(F)c2F)cc(OC)c1 [Compound I-22, N-cyclopropyl-N-(3,5-dimethoxybenzyl)-2,3,4,5,6-pentafluorobenzenesulfonamide] | 4.5 | – | 4.7 | – | – | – |

| SMILES | IC50 (MOLM13) [µM] | activity in AML cells (MV4-11) | IC50 (MV4-11) [µM] | potency relative to parent I-1 analogue (MV4-11) | IC50 [1] [µM] | IC50 [2] [µM] |
| --- | --- | --- | --- | --- | --- | --- |
| CS(=O)(=O)c1ccc(CN(C2CC2)S(=O)(=O)c2c(F)c(F)c(F)c(F)c2F)cc1 [Compound I-24, N-cyclopropyl-2,3,4,5,6-pentafluoro-N-(4(methylsulfonyl)benzyl)benzenesulfonamide] | 1.35 | – | 1.15 | – | – | – |
| COC(=O)c1ccc(CN(C2CC2)S(=O)(=O)c2c(F)c(F)c(F)c(F)c2F)cc1 [Compound I-27, Methyl 4-(((N-cyclopropyl-2,3,4,5,6-pentafluorophenyl)sulfonamido)methyl)benzoate] | 0.9 | – | 2 | – | – | – |
| COc1cc(CN(C2CC2)S(=O)(=O)c2c(F)c(F)c(F)c(F)c2F)cc(OC)c1O [Compound I-29, N-cyclopropyl-2,3,4,5,6-pentafluoro-N-(4-hydroxy-3,5-dimethoxybenzyl)benzenesulfonamide] | 3.96 | – | 1.94 | – | 9.7 | – |
| O=S(=O)(c1c(F)c(F)c(F)c(F)c1F)N(CC#Cc1ccccc1)C1CC1 [Compound I-31, N-cyclopropyl-2,3,4,5,6-pentafluoro-N-(3-phenylprop-2-yn-1-yl)benzenesulfonamide] | 5.2 | – | 1.53 | – | 15.5 | – |
| O=S(=O)(c1c(F)c(F)c(F)c(F)c1F)N(Cc1ccccn1)C1CC1 [Compound I-32, N-cyclopropyl-2,3,4,5,6-pentafluoro-N-(pyridin-2-ylmethyl)benzenesulfonamide] | 1.3 | – | 1.5 | – | – | – |
| O=S(=O)(c1c(F)c(F)c(F)c(F)c1F)N(Cc1ccoc1)C1CC1 [Compound I-33] | 3.86 | – | 3.55 | – | 22.1 | – |
| O=S(=O)(c1c(F)c(F)c(F)c(F)c1F)N(Cc1cccc(N2CCOCC2)c1)C1CC1 [Compound I-34, N-cyclopropyl-2,3,4,5,6-pentafluoro-N-(3-morpholinobenzyl)benzenesulfonamide] | 7.95 | – | 0.96 | – | 14.1 | – |
| O=S(=O)(c1c(F)c(F)c(F)c(F)c1F)N(Cc1ccc(F)cc1F)C1CC1 [Compound I-35, N-cyclopropyl-N-(2,4-difluorobenzyl)-2,3,4,5,6-pentafluorobenzenesulfonamide] | 3.96 | – | 1.7 | – | 13.5 | – |
| Nc1ccc(-c2ccccc2CN(C2CC2)S(=O)(=O)c2c(F)c(F)c(F)c(F)c2F)cc1 [Compound I-38, N-((4′-amino-[1,1′-biphenyl]-2-yl)methyl)-N-cyclopropyl-2,3,4,5,6-pentafluorobenzenesulfonamide] | 8.51 | – | 1.43 | – | 13.1 | – |
| Nc1cccc(-c2ccc(CN(C3CC3)S(=O)(=O)c3c(F)c(F)c(F)c(F)c3F)cc2)c1 [Compound I-39, N-((3′-amino-[1,1′-biphenyl]-4-yl)methyl)-N-cyclopropyl-2,3,4,5,6-pentafluorobenzenesulfonamide] | 14.9 | – | 1.52 | – | 15.7 | – |
| O=C(OCc1ccccc1)c1ccc(CN(C2CC2)S(=O)(=O)c2c(F)c(F)c(F)c(F)c2F)cc1 [Compound I-41, Benzyl 4-(((N-cyclopropyl-2,3,4,5,6-pentafluorophenyl)sulfonamido)methyl)benzoate] | 3.2 | – | 1 | – | – | – |
| O=S(=O)(c1c(F)c(F)c(F)c(F)c1F)N(Cc1ccccc1F)C1CCC1 [Compound I-45, N-cyclobutyl-2,3,4,5,6-pentafluoro-N-(2-fluorobenzyl)benzenesulfonamide] | 3.9 | – | 2.27 | – | 14.2 | – |
| O=S(=O)(c1c(F)c(F)c(F)c(F)c1F)N(Cc1ccc(F)cc1)C1CCOC1 (stereo not shown) [Compound I-51, 2,3,4,5,6-pentafluoro-N-(4-fluorobenzyl)-N-(tetrahydrofuran-3-yl)benzenesulfonamide] | 3.37 | – | 4.8 | – | – | – |
| O=S(=O)(c1c(F)c(F)c(F)c(F)c1F)N(Cc1ccncc1)Cc1ccc(F)cc1 [Compound I-52] | 3.5 | – | 4.1 | – | – | – |
| O=S(=O)(c1c(F)c(F)c(F)c(F)c1F)N(Cc1ccc(F)cc1)c1ccccc1 [Compound I-53, 2,3,4,5,6-pentafluoro-N-(4-fluorobenzyl)-N-phenylbenzenesulfonamide] | 1.5 | – | 1.4 | – | – | – |
| CN(Cc1ccc(F)cc1)S(=O)(=O)c1c(F)c(F)c(F)c(F)c1F [Compound I-58, 2,3,4,5,6-pentafluoro-N-(4-fluorobenzyl)-N-methylbenzenesulfonamide] | 3.1 | – | 0.44 | – | – | – |
